Experiments:
[1] = Cytotoxicity against human Huh5-2 cells; type: cell-based, Huh-5-2
[2] = test system: Hepatitis C virus; experiment: Antiviral activity against HCV assessed as inhibition of viral replicon replication in human Huh5-2 cells; type: functional, organism-based, Hepacivirus hominis; conditions: Huh-5-2
[3] = test system: carboxypeptidase; experiment: Stability in presence of carboxypeptidase assessed as parent ProTide compound remaining after 10 mins; type: ADME; conditions: read-out: Stability
[4] = test system: carboxypeptidase; experiment: Stability in presence of carboxypeptidase assessed as parent ProTide compound remaining; type: ADME
[5] = test system: carboxypeptidase; experiment: Stability in presence of carboxypeptidase assessed as parent ProTide compound remaining after 13 hrs; type: ADME; conditions: read-out: Stability
[6] = test system: Hepatitis C virus; experiment: Antiviral activity against HCV by viral replicon assay; type: functional, organism-based, Hepacivirus hominis
[7] = Inhibition of HCV RNA-dependent RNA polymerase; design: species or system Hepacivirus hominis

| EC50 [6] | IC50 [7] | Compound | CC50 [1] | EC50 [2] | remaining at 10 min [3] | half-life [4] | remaining at 13 h [5] |
| --- | --- | --- | --- | --- | --- | --- | --- |
| – | – | C[C@H](NP(=O)(OC[C@H]1O[C@@H](n2cnc3c(N)ncnc32)[C@](C)(O)[C@@H]1O)Oc1cccc2ccccc12)C(=O)OC(C)(C)C (some centres undefined) | > 50 µM | 4.18 µM | – | – | – |
| – | – | CCOC(=O)[C@H](C)NP(=O)(OC[C@H]1O[C@@H](n2cnc3c(N)ncnc32)[C@](C)(O)[C@@H]1O)Oc1cccc2ccccc12 (some centres undefined) | > 50 µM | 0.24 µM | – | – | – |
| – | – | C[C@H](NP(=O)(OC[C@H]1O[C@@H](n2cnc3c(=O)[nH]c(N)nc32)[C@](C)(O)[C@@H]1O)Oc1cccc2ccccc12)C(=O)OCc1ccccc1 (some centres undefined) | > 50 µM | 0.12 µM | 7% | 0.05 h | – |
| – | – | CCOC(=O)[C@H](C)NP(=O)(OC[C@H]1O[C@@H](n2cnc3c(=O)[nH]c(N)nc32)[C@](C)(O)[C@@H]1O)Oc1cccc2ccccc12 (some centres undefined) | > 50 µM | 0.28 µM | – | – | – |
| – | – | C[C@H](NP(=O)(OC[C@H]1O[C@@H](n2cnc3c(=O)[nH]c(N)nc32)[C@](C)(O)[C@@H]1O)Oc1cccc2ccccc12)C(=O)OC(C)(C)C (some centres undefined) | > 50 µM | 27 µM | – | 33 h | 24% |
| – | – | COC(=O)[C@H](C)NP(=O)(OC[C@H]1O[C@@H](n2cnc3c(=O)[nH]c(N)nc32)[C@](C)(O)[C@@H]1O)Oc1cccc2ccccc12 (some centres undefined) | > 50 µM | 0.23 µM | – | – | – |
| – | – | C[C@H](NP(=O)(OC[C@H]1O[C@@H](n2cnc3c(N)ncnc32)[C@](C)(O)[C@@H]1O)Oc1cccc2ccccc12)C(=O)OCc1ccccc1 (some centres undefined) | > 50 µM | 0.27 µM | – | – | – |
| – | – | C[C@@]1(O)[C@H](O)[C@@H](CO)O[C@H]1n1cnc2c(N)ncnc21 | > 50 µM | 0.25 µM | – | – | – |
| 3.5 µM | 0.13 µM | C[C@@]1(O)[C@H](O)[C@@H](CO)O[C@H]1n1cnc2c(=O)[nH]c(N)nc21 [2'-B-METHYL-GUANOSINE] | > 50 µM | 10.1 µM | – | – | – |
